Columns and labels:
[1] = system: HepG2; experiment: Cytotoxicity against human HepG2 cells assessed as cell viability at 10 uM incubated for 1 hr by EZ-Cytox cell viability assay; assay type: cell-based; settings: hepg2, 1 h
[2] = system: HepG2; experiment: Inhibition of H2O2-induced ROS accumulation in human HepG2 cells assessed as ROS generation at 10 uM preincubated for 1 hr followed by H2O2-stimulation and measured after 30 mins by H2DCFDA staining based flow cytometry (reference value: 100 +/- 11.53%); assay type: functional; set-up: scale not given: the % may be the effect or the level left
[3] = system: HepG2; experiment: Hepatoprotective activity against H2O2-induced cell death in human HepG2 cells assessed as cell viability at 10 uM preincubated for 1 hr followed by H2O2-stimulation and measured after 24 hrs by EZ-Cytox cell viability assay (reference value: 43.9 +/- 5.25%); assay type: functional; settings: read-out: Activity
[4] = system: HepG2; experiment: Hepatoprotective activity against H2O2-induced cell death in human HepG2 cells assessed as cell viability at 50 uM preincubated for 1 hr followed by H2O2-stimulation and measured after 24 hrs by EZ-Cytox cell viability assay (reference value: 43.9 +/- 5.25%); assay type: functional; settings: read-out: Activity
[5] = system: HepG2; experiment: Inhibition of H2O2-induced ROS accumulation in human HepG2 cells at 50 uM assessed as ROS generation preincubated for 1 hr followed by H2O2-stimulation and measured after 30 mins by H2DCFDA staining based flow cytometry (reference value: 100 +/- 11.53%); assay type: functional; set-up: scale not given: the % may be the effect or the level left

| SMILES | Activity [1] | Activity [2] [%] | viability at 10 µM [3] [%] | viability at 50 µM [4] [%] | Activity [5] [%] |
| --- | --- | --- | --- | --- | --- |
| C/C=C/c1cc(OC)c(OC)c(OC)c1 | Non-Toxic | 75.8 | 62.2 | – | – |
| COc1c2ccoc2c(OC[C@@H](O)C(C)(C)OC)c2oc(=O)ccc12 | Non-Toxic | 52 | 40.4 | – | – |
| CC1(C)O[C@@H]1COc1c2ccoc2cc2oc(=O)ccc12 | Non-Toxic | 103.9 | 59.3 | – | – |
| COc1c2ccoc2c(O)c2oc(=O)ccc12 | Non-Toxic | 38.1 | 34.6 | – | – |
| COc1c2c(c(OCC=C(C)C)c3occc13)O[C@]1(C=C2)O[C@H](COc2c3ccoc3cc3oc(=O)ccc23)C(C)(C)O1 | Non-Toxic | 79.9 | 64.1 | – | – |
| COc1c2ccoc2c(OC/C=C(/C)COC(=O)CC(C)C)c2oc(=O)ccc12 | Non-Toxic | 90.1 | 58.5 | – | – |
| CC(C)=CCOc1c2occc2c(OC[C@@H](O)C(C)(C)O)c2ccc(=O)oc12 | Non-Toxic | 78 | 51 | – | – |
| CC(C)=CCOc1c2occc2c(OC[C@H]2OC2(C)C)c2ccc(=O)oc12 | Non-Toxic | 65.5 | 56.2 | – | – |
| C=C(C)[C@H](O)COc1c2ccoc2c(OCC=C(C)C)c2oc(=O)ccc12 | Non-Toxic | 63.9 | 50.9 | – | – |
| COc1c2c(c(OCC=C(C)C)c3occc13)O[C@@]1(C=C2)O[C@H](COc2c3ccoc3cc3oc(=O)ccc23)C(C)(C)O1 | Non-Toxic | 100 | 63 | – | – |
| CC(C)=CCOc1c2ccoc2c(OCC(O)C(C)(C)O)c2oc(=O)ccc12 (single isomer, unassigned; (-)) | Non-Toxic | 85.3 | 61.1 | – | – |
| COc1c2ccoc2cc2oc(=O)ccc12 [BERGAPTEN] | Non-Toxic | 92.7 | 60.3 | – | – |
| COc1c2ccoc2c(OC[C@@H](O)C(C)(C)O)c2oc(=O)ccc12 [BYAKANGELICIN] | Non-Toxic | 57.9 | 46.5 | – | – |
| CC(C)=CCOc1c2ccoc2cc2oc(=O)ccc12 [ISOIMPERATORIN] | Non-Toxic | 71.1 | 67 | – | – |
| COc1c2occc2c(OCC=C(C)C)c2ccc(=O)oc12 [KINIDILIN] | Non-Toxic | 51.3 | 60.5 | – | – |
| COc1c2occc2cc2ccc(=O)oc12 [METHOXSALEN] | Non-Toxic | 77 | 56.5 | – | – |
| CC(C)(O)[C@H](O)COc1c2ccoc2cc2oc(=O)ccc12 [OXYPEUCEDANIN HYDRATE] | Non-Toxic | 92.8 | 47.5 | – | – |
| CC(C)=CCOc1c2occc2cc2ccc(=O)oc12 [PENTOSALEN] | Non-Toxic | 77.1 | 71.5 | – | – |
| COc1c2ccoc2c(OCC=C(C)C)c2oc(=O)ccc12 [PHELLOPTERIN] | Non-Toxic | 58.3 | 57.6 | – | – |
| O=c1ccc2cc3ccoc3cc2o1 [PSORALEN] | Non-Toxic | 101.4 | 55.5 | – | – |
| O=C(/C=C/c1ccc(O)c(O)c1)O[C@H](Cc1ccc(O)c(O)c1)C(=O)O [ROSMARINIC ACID] | – | – | – | 65.3 | 49.3 |
